From patent publication US11208400B2, “Substituted 6-(1H-pyrazol-1-yl)pyrimidin-4-amine derivatives and uses thereof” (Bayer Aktiengesellschaft, priority 2016, dated 2021)

Molecular target: T1, human Npt2a (Homo sapiens, UniProt Q06495)
T1 construct: expressed in transfected cells
T1 sequence (Q06495 1-639): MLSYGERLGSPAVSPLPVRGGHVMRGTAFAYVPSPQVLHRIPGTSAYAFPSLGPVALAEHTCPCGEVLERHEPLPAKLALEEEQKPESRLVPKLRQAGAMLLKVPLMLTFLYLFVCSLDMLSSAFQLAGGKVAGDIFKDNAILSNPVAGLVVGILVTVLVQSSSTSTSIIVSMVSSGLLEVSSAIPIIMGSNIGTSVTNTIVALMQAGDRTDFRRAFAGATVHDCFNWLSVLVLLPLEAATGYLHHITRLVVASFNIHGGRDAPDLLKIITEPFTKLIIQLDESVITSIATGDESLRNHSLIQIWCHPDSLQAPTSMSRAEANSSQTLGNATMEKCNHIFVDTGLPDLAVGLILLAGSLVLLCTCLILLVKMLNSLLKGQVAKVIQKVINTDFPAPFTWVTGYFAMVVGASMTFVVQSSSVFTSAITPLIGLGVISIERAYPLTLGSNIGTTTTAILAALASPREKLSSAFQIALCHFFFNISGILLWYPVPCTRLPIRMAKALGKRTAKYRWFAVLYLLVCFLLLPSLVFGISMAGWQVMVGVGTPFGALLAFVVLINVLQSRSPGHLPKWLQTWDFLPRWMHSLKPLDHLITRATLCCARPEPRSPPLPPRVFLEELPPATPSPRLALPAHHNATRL
Test: Npt2a activity cell based assay, membrane potential dye, CHO T-REx hNpt2a cells
Conditions: doxycycline-induced, depolarization by sodium phosphate influx, average or median values if tested more than once
Outline: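 Cells were doxycycline-induced CHO T-REx hNpt2a, dye-loaded and pretreated 5 min at RT with 1 nM–50 μM compound in Na-free pH 7.4 buffer. IC50 was fit to the post/pre-trigger fluorescence ratio.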

| SMILES | IC50 |
| --- | --- |
| CCOC(=O)c1c(Cl)c(C)nn1-c1cc(Nc2c(Cl)c(-c3ccc(F)cc3)nn2C)ncn1 [Example 448, ethyl 4-chloro-1-(6-{[4-chloro-3-(4-fluorophenyl)-1-methyl-1H-pyrazol-5-yl]amino}pyrimidin-4-yl)-3-methyl-1H-pyrazole-5-carboxylate] | 440 nM |
| CCOC(=O)c1c(C)nn(-c2cc(Nc3c(Cl)c(-c4ccc(F)cc4)nn3C)ncn2)c1C [Example 449, ethyl 1-(6-{[4-chloro-3-(4-fluorophenyl)-1-methyl-1H-pyrazol-5-yl]amino}pyrimidin-4-yl)-3,5-dimethyl-1H-pyrazole-4-carboxylate] | 8 nM |
| COc1c(-c2ccc(F)cc2)nn(CC2CC2)c1Nc1cc(-n2nc(C)c(-c3nnc(C)o3)c2C)ncn1 [Example 450, N-[1-(cyclopropylmethyl)-3-(4-fluorophenyl)-4-methoxy-1H-pyrazol-5-yl]-6-[3,5-dimethyl-4-(5-methyl-1,3,4-oxadiazol-2-yl)-1H-pyrazol-1-yl]pyrimidin-4-amine] | 660 nM |
| CC(=O)c1c(C)nn(-c2cc(Nc3c(C)nn(-c4ccc(C#N)cc4)c3C)ncn2)c1C [Example 451, 4-(4-{[6-(4-acetyl-3,5-dimethyl-1H-pyrazol-1-yl)pyrimidin-4-yl]amino}-3,5-dimethyl-1H-pyrazol-1-yl)benzonitrile] | 78 nM |
| Cc1nn(-c2cc(Nc3c(C)c(-c4ccc(F)cc4)nn3CC3CC3)ncn2)c(C)c1CN1CC(F)C1 [Example 452, N-[1-(cyclopropylmethyl)-3-(4-fluorophenyl)-4-methyl-1H-pyrazol-5-yl]-6-{4-[(3-fluoroazetidin-1-yl)methyl]-3,5-dimethyl-1H-pyrazol-1-yl}pyrimidin-4-amine] | 16 nM |
| CCOC(=O)c1c(C)nn(-c2cc(Nc3c(C)nn(-c4ccc(F)cc4)c3C)ncn2)c1C [Example 453, ethyl 1-(6-{[1-(4-fluorophenyl)-3,5-dimethyl-1H-pyrazol-4-yl]amino}pyrimidin-4-yl)-3,5-dimethyl-1H-pyrazole-4-carboxylate] | 18 nM |
| CCOC(=O)c1c(C)nn(-c2cc(Nc3c(C)c(-c4ccc(C(F)F)cc4)nn3CC3CC3)ncn2)c1C [Example 454, ethyl 1-[6-({1-(cyclopropylmethyl)-3-[4-(difluoromethyl)phenyl]-4-methyl-1H-pyrazol-5-yl}amino)pyrimidin-4-yl]-3,5-dimethyl-1H-pyrazole-4-carboxylate] | 11 nM |
| Cc1ccc(-c2nn(CC3CC3)c(Nc3cc(-n4nc(C)c(C(F)(F)F)c4C)ncn3)c2C)cn1 [Example 455, N-[1-(cyclopropylmethyl)-4-methyl-3-(6-methylpyridin-3-yl)-1H-pyrazol-5-yl]-6-[3,5-dimethyl-4-(trifluoromethyl)-1H-pyrazol-1-yl]pyrimidin-4-amine] | 165 nM |
| Cc1nn(-c2cc(Nc3nn(C)c(-c4ccc(F)cc4)c3C)ncn2)c(C)c1C(O)CC(C)C (stereo not drawn) [Example 456, 1-[1-(6-{[5-(4-fluorophenyl)-1,4-dimethyl-1H-pyrazol-3-yl]amino}pyrimidin-4-yl)-3,5-dimethyl-1H-pyrazol-4-yl]-3-methylbutan-1-ol] | 41 nM |
| Cc1cc(C)n(-c2cc(Nc3c(Cl)c(-c4ccccc4)nn3C)ncn2)n1 [Example 457, N-(4-chloro-1-methyl-3-phenyl-1H-pyrazol-5-yl)-6-(3,5-dimethyl-1H-pyrazol-1-yl)pyrimidin-4-amine] | 130 nM |
| Cc1nn(-c2cc(Nc3c(C)c(-c4ccc(F)cn4)nn3CC3CC3)ncn2)c(C)c1C(C)(C)O [Example 458, 2-[1-(6-{[1-(cyclopropylmethyl)-3-(5-fluoropyridin-2-yl)-4-methyl-1H-pyrazol-5-yl]amino}pyrimidin-4-yl)-3,5-dimethyl-1H-pyrazol-4-yl]propan-2-ol] | 1550 nM |
| COc1c(C)nn(-c2cc(Nc3nn(C)c(-c4ccc(F)cn4)c3C)ncn2)c1C [Example 461, N-[5-(5-fluoropyridin-2-yl)-1,4-dimethyl-1H-pyrazol-3-yl]-6-(4-methoxy-3,5-dimethyl-1H-pyrazol-1-yl)pyrimidin-4-amine] | 170 nM |
| COc1c(-c2ccc(C#N)cc2)nn(C)c1Nc1cc(-n2nc(C)c(OC)c2C)ncn1 [Example 462, 4-(4-methoxy-5-{[6-(4-methoxy-3,5-dimethyl-1H-pyrazol-1-yl)pyrimidin-4-yl]amino}-1-methyl-1H-pyrazol-3-yl)benzonitrile] | 25 nM |
| COc1c(C)nn(-c2cc(Nc3c(C)nn(-c4ccc(F)cc4)c3C)ncn2)c1C [Example 463, N-[1-(4-fluorophenyl)-3,5-dimethyl-1H-pyrazol-4-yl]-6-(4-methoxy-3,5-dimethyl-1H-pyrazol-1-yl)pyrimidin-4-amine] | 34 nM |
| COc1c(C)nn(-c2cc(Nc3c(C)c(-c4ccc(C#N)cc4)nn3CC3CC3)ncn2)c1C [Example 464, 4-[1-(cyclopropylmethyl)-5-{[6-(4-methoxy-3,5-dimethyl-1H-pyrazol-1-yl)pyrimidin-4-yl]amino}-4-methyl-1H-pyrazol-3-yl]benzonitrile] | 2 nM |
| Cc1cc(C(F)F)n(-c2cc(Nc3c(C)c(-c4ccc(F)cn4)nn3C)ncn2)n1 [Example 465, 6-[5-(difluoromethyl)-3-methyl-1H-pyrazol-1-yl]-N-[3-(5-fluoropyridin-2-yl)-1,4-dimethyl-1H-pyrazol-5-yl]pyrimidin-4-amine] | 170 nM |
| Cc1nn(-c2cc(Nc3c(C)c(-c4ccc(F)cc4)nn3CC3CC3)ncn2)c(C)c1[N+](=O)[O-] [Example 466, N-[1-(cyclopropylmethyl)-3-(4-fluorophenyl)-4-methyl-1H-pyrazol-5-yl]-6-(3,5-dimethyl-4-nitro-1H-pyrazol-1-yl)pyrimidin-4-amine] | 11 nM |
| Cc1cc(C)n(-c2cc(Nc3c(C)c(-c4ccc(F)cn4)nn3C)ncn2)n1 [Example 467, 6-(3,5-dimethyl-1H-pyrazol-1-yl)-N-[3-(5-fluoropyridin-2-yl)-1,4-dimethyl-1H-pyrazol-5-yl]pyrimidin-4-amine] | 69 nM |
| COc1c(C)nn(-c2cc(Nc3c(C)c(-c4ccc(F)cn4)nn3C)ncn2)c1C [Example 468, N-[3-(5-fluoropyridin-2-yl)-1,4-dimethyl-1H-pyrazol-5-yl]-6-(4-methoxy-3,5-dimethyl-1H-pyrazol-1-yl)pyrimidin-4-amine] | 300 nM |
| Cc1nn(-c2cc(Nc3nn(C)c(-c4ccc(F)cc4)c3OC(F)F)ncn2)c(C)c1C(F)(F)F [Example 469, N-[4-(difluoromethoxy)-5-(4-fluorophenyl)-1-methyl-1H-pyrazol-3-yl]-6-[3,5-dimethyl-4-(trifluoromethyl)-1H-pyrazol-1-yl]pyrimidin-4-amine] | 5 nM |
| COc1c(C)nn(-c2cc(Nc3nn(C)c(-c4ccc(F)cc4)c3OC(F)F)ncn2)c1C [Example 470, N-[4-(difluoromethoxy)-5-(4-fluorophenyl)-1-methyl-1H-pyrazol-3-yl]-6-(4-methoxy-3,5-dimethyl-1H-pyrazol-1-yl)pyrimidin-4-amine] | 3 nM |
| Cc1nn(-c2cc(Nc3nn(C)c(-c4ccc(F)cc4)c3OC(F)F)ncn2)c(C)c1C#N [Example 471, 1-(6-{[4-(difluoromethoxy)-5-(4-fluorophenyl)-1-methyl-1H-pyrazol-3-yl]amino}pyrimidin-4-yl)-3,5-dimethyl-1H-pyrazole-4-carbonitrile] | 7 nM |
| Cc1c(-c2ccc(C#N)cc2)nn(C)c1Nc1cc(-n2[nH]c3c(c2=O)CCCC3)ncn1 [Example 472, 4-(1,4-dimethyl-5-{[6-(3-oxo-1,3,4,5,6,7-hexahydro-2H-indazol-2-yl)pyrimidin-4-yl]amino}-1H-pyrazol-3-yl)benzonitrile] | 880 nM |
| Cc1nn(-c2cc(Nc3c(C)c(-c4ccc(C(F)F)nc4)nn3C)ncn2)c(C)c1C(F)(F)F [Example 473, N-{3-[6-(difluoromethyl)pyridin-3-yl]-1,4-dimethyl-1H-pyrazol-5-yl}-6-[3,5-dimethyl-4-(trifluoromethyl)-1H-pyrazol-1-yl]pyrimidin-4-amine] | 160 nM |
| Cc1nn(-c2cc(Nc3c(C)c(-c4ccc(C(F)F)nc4)nn3C)ncn2)c(C)c1Cl [Example 474, 6-(4-chloro-3,5-dimethyl-1H-pyrazol-1-yl)-N-{3-[6-(difluoromethyl)pyridin-3-yl]-1,4-dimethyl-1H-pyrazol-5-yl}pyrimidin-4-amine] | 234 nM |
| Cc1cc(C(F)F)n(-c2cc(Nc3c(C)c(-c4ccc(OC(F)F)cc4)nn3CC3CC3)ncn2)n1 [Example 475, N-{1-(cyclopropylmethyl)-3-[4-(difluoromethoxy)phenyl]-4-methyl-1H-pyrazol-5-yl}-6-[5-(difluoromethyl)-3-methyl-1H-pyrazol-1-yl]pyrimidin-4-amine] | 215 nM |
| Cc1cc(C)n(-c2cc(Nc3c(C)c(-c4ccc(OC(F)F)cc4)nn3CC3CC3)ncn2)n1 [Example 476, N-{1-(cyclopropylmethyl)-3-[4-(difluoromethoxy)phenyl]-4-methyl-1H-pyrazol-5-yl}-6-(3,5-dimethyl-1H-pyrazol-1-yl)pyrimidin-4-amine] | 29 nM |
